Results: US20130244953A1, “DUAL SECURED THERAPEUTIC PEPTIDE DELIVERY SYSTEM” (priority 2011, published 2013)

Tested on: rat red blood cells
Experiment: Hemolytic assay
Type: cell-based
Details: 1 μM melittin, 37° C., 1 hour, pH 7.4
Procedure: Hemolytic assay: Rat blood was used to compare hemolytic effects of free melittin, SSNS, and DSNS using DI water as positive control and PBS as negative control. Briefly, rat red blood cells were washed using 210 mM sodium chloride and dispersed in phosphate buffer saline (pH 7.4), To the SSNS, DSNS and free melittin corresponding to melittin concentration of 0.1 to 10 μM, the same amount of red blood cells was added and incubated at 37° C. for 1 hour. Following, each sample was centrifuged at 300 rcf for 2 min. and the optical density of supernatant was measured (λ=405 nm.) for the quantification of lysed cell amount. The results are shown graphically in FIG. 5 and in the corresponding photographs of FIG. 6.

For CC[C@H](C)[C@H](NC(=O)CN)C(=O)NCC(=O)N[C@@H](C)C(=O)N[C@H](C(=O)N[C@@H](CC(C)C)C(=O)N[C@@H](CCCCN)C(=O)N[C@H](C(=O)N[C@@H](CC(C)C)C(=O)N[C@H](C(=O)N[C@H](C(=O)NCC(=O)N[C@@H](CC(C)C)C(=O)N1CCC[C@H]1C(=O)N[C@@H](C)C(=O)N[C@@H](CC(C)C)C(=O)N[C@H](C(=O)N[C@@H](CO)C(=O)N[C@@H](Cc1c[nH]c2ccccc12)C(=O)N[C@H](C(=O)N[C@@H](CCCCN)C(=O)N[C@@H](CCCNC(=N)N)C(=O)N[C@@H](CCCCN)C(=O)N[C@@H](CCCNC(=N)N)C(=O)N[C@@H](CCC(N)=O)C(=O)N[C@@H](CCC(N)=O)C(N)=O)[C@@H](C)CC)[C@@H](C)CC)[C@@H](C)O)[C@@H](C)O)C(C)C)C(C)C [free melittin, melittin], the “red blood cell lysis” value was “completely lysed the cells”.
